#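 All cell lines were grown in 96-well plates and treated with compound for 48 hours. GI50 marks 50% less growth. The concentration for full growth arrest is given as TGI.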
# Legend:
# Test in all cases: NCI anticancer screen, dose series, 48 h
# [1] = test system: 786-0 renal
# [2] = test system: A498 renal
# [3] = test system: A549 NSCLC
# [4] = test system: ACHN renal
# [5] = test system: BT-549 breast
# [6] = test system: CAKI-1 renal
# [7] = test system: CCRF-CEM leukemia
# [8] = test system: COLO 205 colon
# [9] = test system: DU-145 prostate
# [10] = test system: EKVX NSCLC
# [11] = test system: HCC-2998 colon
# [12] = test system: HCT-116 colon
# [13] = test system: HCT-15 colon
# [14] = test system: HL-60(TB) leukemia
# [15] = test system: HOP-62 NSCLC
# [16] = test system: HOP-92 NSCLC
# [17] = test system: HS 578T breast
# [18] = test system: HT29 colon
# [19] = test system: IGROV1 ovarian
# [20] = test system: K-562 leukemia
# [21] = test system: KM12 colon
# [22] = test system: LOX IMVI melanoma
# [23] = test system: M14 melanoma
# [24] = test system: MALME-3M melanoma
# [25] = test system: MCF7 breast
# [26] = test system: MDA-MB-231 breast
# [27] = test system: MDA-MB-435
# [28] = test system: MOLT-4 leukemia
# [29] = test system: NCI-H226 lung
# [30] = test system: NCI-H23 lung
# [31] = test system: NCI-H460 lung
# [32] = test system: NCI-H522 lung
# [33] = test system: NCI/ADR-RES ovarian
# [34] = test system: OVCAR-3 ovarian
# [35] = test system: OVCAR-4 ovarian
# [36] = test system: OVCAR-5 ovarian
# [37] = test system: OVCAR-8 ovarian
# [38] = test system: PC-3 prostate
# [39] = test system: RPMI-8226 leukemia
# [40] = test system: RXF 393 renal
# [41] = test system: SF-268 CNS
# [42] = test system: SF-295 CNS
# [43] = test system: SF-539 CNS
# [44] = test system: SK-MEL-2 melanoma
# [45] = test system: SK-MEL-28 melanoma
# [46] = test system: SK-MEL-5 melanoma
# [47] = test system: SK-OV-3 ovarian
# [48] = test system: SN12C renal
# [49] = test system: SNB-19 CNS
# [50] = test system: SNB-75 CNS
# [51] = test system: SW-620 colon
# [52] = test system: T-47D breast
# [53] = test system: TK-10 renal
# [54] = test system: U251 CNS
# [55] = test system: UACC-257 melanoma
# [56] = test system: UACC-62 melanoma
# [57] = test system: UO-31 renal
structure (smiles),measurement,setting,value
CCOC(=O)C1=C(C)N=C2SC=C(c3ccccc3)N2[C@H]1c1cn[nH]c1-c1ccc(Cl)cc1,GI50,[1],5.2 µM
same,TGI,[1],17 µM
same,GI50,[2],5.37 µM
same,TGI,[2],18.2 µM
same,GI50,[3],6.73 µM
same,TGI,[3],24.7 µM
same,GI50,[4],3.03 µM
same,TGI,[4],11.7 µM
same,GI50,[5],3.84 µM
same,TGI,[5],13.9 µM
same,GI50,[6],1760 nM
same,TGI,[6],3.56 µM
same,GI50,[7],3.12 µM
same,TGI,[7],14 µM
same,GI50,[8],3.53 µM
same,TGI,[8],15.1 µM
same,GI50,[9],6.12 µM
same,TGI,[9],18.8 µM
same,GI50,[10],7.68 µM
same,TGI,[10],22.3 µM
same,GI50,[11],6.24 µM
same,TGI,[11],20.4 µM
same,GI50,[12],3.11 µM
same,TGI,[12],13.3 µM
same,GI50,[13],3.19 µM
same,TGI,[13],11.7 µM
same,GI50,[14],2850 nM
same,TGI,[14],7.98 µM
same,GI50,[15],7.09 µM
same,TGI,[15],22 µM
same,GI50,[16],2400 nM
same,TGI,[16],8.7 µM
same,GI50,[17],3.68 µM
same,TGI,[17],34.5 µM
same,GI50,[18],4.32 µM
same,TGI,[18],13.7 µM
same,GI50,[19],2330 nM
same,TGI,[19],7.61 µM
same,GI50,[20],3.67 µM
same,TGI,[20],23.2 µM
same,GI50,[21],4.69 µM
same,TGI,[21],17.5 µM
same,GI50,[22],1460 nM
same,TGI,[22],3.43 µM
same,GI50,[23],4.37 µM
same,TGI,[23],19.2 µM
same,GI50,[24],1600 nM
same,TGI,[24],3.45 µM
same,GI50,[25],2700 nM
same,TGI,[25],13.8 µM
same,GI50,[26],2320 nM
same,TGI,[26],7.96 µM
same,GI50,[27],4.07 µM
same,TGI,[27],15.2 µM
same,GI50,[28],2290 nM
same,TGI,[28],7.41 µM
same,GI50,[29],8.25 µM
same,TGI,[29],46.1 µM
same,GI50,[30],4.64 µM
same,TGI,[30],19.6 µM
same,GI50,[31],3.36 µM
same,TGI,[31],12.7 µM
same,GI50,[32],1680 nM
same,TGI,[32],3.44 µM
same,GI50,[33],5.97 µM
same,TGI,[33],27.6 µM
same,GI50,[34],3.21 µM
same,TGI,[34],12 µM
same,GI50,[35],4.66 µM
same,TGI,[35],16.6 µM
same,GI50,[36],6.06 µM
same,TGI,[36],19.9 µM
same,GI50,[37],4.46 µM
same,TGI,[37],19.6 µM
same,GI50,[38],3.98 µM
same,TGI,[38],17.3 µM
same,GI50,[39],2650 nM
same,TGI,[39],9.39 µM
same,GI50,[40],5.32 µM
same,TGI,[40],19.1 µM
same,GI50,[41],3.65 µM
same,TGI,[41],16.6 µM
same,GI50,[42],7.96 µM
same,TGI,[42],22.2 µM
same,GI50,[43],5.68 µM
same,TGI,[43],18 µM
same,GI50,[44],6.21 µM
same,TGI,[44],19.3 µM
same,GI50,[45],4.92 µM
same,TGI,[45],16.8 µM
same,GI50,[46],3.22 µM
same,TGI,[46],12 µM
same,GI50,[47],7.39 µM
same,TGI,[47],20.1 µM
same,GI50,[48],4.51 µM
same,TGI,[48],17.3 µM
same,GI50,[49],7.65 µM
same,TGI,[49],20.7 µM
same,GI50,[50],5.05 µM
same,TGI,[50],18.3 µM
same,GI50,[51],3.84 µM
same,TGI,[51],14.4 µM
same,GI50,[52],3.13 µM
same,TGI,[52],22.4 µM
same,GI50,[53],10.2 µM
same,TGI,[53],22.2 µM
same,GI50,[54],3.8 µM
same,TGI,[54],16.4 µM
same,GI50,[55],10.1 µM
same,TGI,[55],24.1 µM
same,GI50,[56],2850 nM
same,TGI,[56],12.5 µM
same,GI50,[57],1390 nM
same,TGI,[57],9.53 µM
